Where two headings read alike, the source gives them in different places. Blank lines part the entries; values can stand above or below the compound they belong to.
How the values were obtained:
[1] = Superoxide anion radical generation using DHR123; type: physicochemical; details: 10 μM in PBS (0.2% DMSO); green light 505 nm
Experimental: All compounds (10 μM) were prepared in PBS (0.2% DMSO). To this solution, DHR123 was added so that its final concentration was 10 μM. Then, the samples were irradiated in 1.0 × 0.5 cm cuvette by green light (505 nm centered LED) for indicated time intervals. Immediately, the fluorescence spectra were collected by using a Photon Technology International (PTI) fluorimeter. The excitation wavelength was set to 500 nm, the excitation and emission slit widths were 2 nm, and the integration time was set to 1 s.

[2] = test system: A2780cis MCTS; assay: 3D multicellular tumor spheroid growth inhibition; type: cell-based; details: 10 μM, 4 h incubation; for tumor growth of A2780cis spheres after PDT treatment: 1 h 520 nm on day 3, followed 7 days; for spheroid shrinkage compared to irradiated controls: 1 h 520 nm
Experimental: Briefly, a single suspension of A2780cis cells at a density of 5 × 10^3 cells/well in complete RPMI medium was dispatched onto 96-well Corning microplates with ultralow attachment surface coating. The plates were covered and transferred to an incubator at 310 K with a 5% CO2 atmosphere. After 3 days post-seeding, uniform MCTSs were formed, which was confirmed using an inverted Zeiss AXIO observer 7 microscope. Cell media of MCTSs was changed by replacing 50% with fresh cell media and allowed to grow for 3 days. On day 3, MTCS was incubated with tested agents (10 μM) for 4 h and then irradiated with 520 nm light for 1 h. Treatments were then carefully removed, and fresh media was added. The integrity, radius, size, and volume of the MCTSs were monitored using a DMi1 inverted phase contrast microscope (Leica Microsystems) over 7 days. The radius of the tumorspheres was measured using Fiji software, and the volume was calculated using the following equation: V = 4/3πr^3.

[3] = Singlet oxygen generation, time-resolved NIR phosphorescence at 1275 nm; type: physicochemical; details: for singlet oxygen quantum yields in DCM: excitation at 355 and 532 nm; for singlet oxygen quantum yield at 355 nm, ACN / singlet oxygen quantum yield at 355 nm, DCM / singlet oxygen quantum yield at 355 nm, PBS: excitation 355 nm
Description: Singlet oxygen generation was studied by time-resolved near-infrared phosphorescence by means of a customized setup. Briefly, a pulsed Nd:YAG laser (FTSS355-Q, Crystal Laser, Berlin, Germany) working at a 1 or 10 kHz repetition rate at 355 nm (0.5 μJ per pulse) or 532 nm (1.2 μJ per pulse) was used to excite the sample. A 1064 nm rugate notch filter (Edmund Optics) and an uncoated SKG-5 filter (CVI Laser Corporation) were placed in the laser path to remove any NIR emission. The light emitted by the sample was filtered with a 1000 nm long-pass filter (Edmund Optics) and later by a narrow bandpass filter at 1275 nm (BK-1270-70-B, bk Interferenzoptik). A thermoelectric-cooled NIR-sensitive photomultiplier tube assembly (H9170-45, Hamamatsu Photonics, Hamamatsu, Japan) was used as a detector. […] The time dependence of the ^1O2 phosphorescence with the signal intensity S(t) is described by eq 2, in which τT and τΔ are the lifetimes of the photosensitizer triplet state and of ^1O2 respectively, and S0 is a preexponential parameter proportional to ΦΔ. [drawing 2] 2
The ΦΔ values of the different samples were obtained by comparing S0 values of optically matched samples and using an appropriate reference by means of eq 3. [drawing 3] 3

[4] = parameters: method as in earlier work; details: previously-reported parent compounds, cited from earlier work; for singlet oxygen quantum yield at 355 nm, ACN / singlet oxygen quantum yield at 355 nm, DCM / singlet oxygen quantum yield at 355 nm, PBS: excitation 355 nm
[5] = test system: A375, SK-MEL-28, HeLa, A2780 and A2780cis cancer cells; assay: Photo- and cytotoxicity, statements across the studied cancer cell lines; type: cell-based; details: for IC50: absence of light, regardless of the cell line, read-out: dark IC50 in the studied cancer cell lines
Description: Having shown that the Ir(III)-COUPY conjugates can sensitize both type I and II ROS through spectroscopic techniques and readily internalize into living cells, their photocytotoxicity was screened in various cancer cell lines. This screening included two representative melanoma cell lines (human A375 and […] human SK-MEL-28) and cancer cells with resistance to the clinical drug cisplatin. For the latter, both sensitive and cisplatin-resistant ovarian cancer cells (A2780 and A2780cis) as well as HeLa cells, which also show a degree of chemoresistance to the platinum anticancer drug in vitro,[54] were used. For the determination of dark and light cytotoxicity, dose–response curves were assayed from both conditions to provide the correspondent IC50 values, which correspond to the concentration needed for inhibition of cell growth by 50%. Phototherapeutic index (PI) was calculated as the ratio of dark to light IC50 value for each compound.
A2780, A2780cis, HeLa, A375, and SK-MEL-28 cells were maintained at logarithmic growth-phase and cultured in 96-well plates at a density of 5000 cells/well in complete medium for 24 h at 310 K, 5% CO2 in a humidified incubator. For hypoxia experiments, a hypoxia condition was set up by Tissue Culture Service at University of Murcia using nitrogen (N2) to displace O2 down to a minimum of 2% in a Forma Steri-Cycle i160 incubator (Thermo Fisher Scientific). Serial dilutions of the compounds were added at the final concentrations in the range of 0–100 μM in a final volume of 100 μL per well. A light-based treatment schedule was performed as follows: 1 h incubation with the compounds in the dark, followed by 1 h incubation under irradiation conditions by placing the Photoreactor EXPO-LED from Luzchem (Canada) fitted with green lamps (final light intensity applied of 1.5 mW/cm^2 at λmax = 520 nm) inside the CO2 incubator. All the cell culture plates subjected to light irradiation included untreated controls to verify that cell viability was not affected by light. Then, treatment-containing media was removed, and fresh media was added for a 48 h cell recovery period; the temperature throughout the experiment remained at 310 K. Dark control samples were placed in the same dark conditions and then kept incubated for 1 h in the dark in the humidified CO2 incubator. Medium was then aspirated by suction, cells were loaded with 50 μL of MTT solution (1 mg/mL) for additional 4 h and then removed, and 50 μL of DMSO was added to solubilize the purple formazan crystals formed in active cells. The absorbance was measured at 570 nm using a microplate reader (FLUOstar Omega), and the IC50 values were calculated based on the inhibitory rate curves using the following equation [drawing 4] […]

[6] = test system: A2780cis cells; assay: Cellular accumulation by ICP-MS; type: cell-based; details: 2 h treatment at 10 μM
Experimental: Briefly, A2780cis cells were seeded onto a 12-well plate (3 × 10^5 cells/well). Treatments with tested agents for 2 h were applied at 10 μM. Cisplatin was included for comparative purposes. Cells were then trypsinized, and pellets were counted. […] Three independent experiments were performed (n = 2 replicates).

[7] = excitation 532 nm, room temperature

singlet oxygen quantum yields in DCM ([3]; DCM): ca. 0.20
SMILES: CCCCn1c2[n+](c3cc(C(=O)NCCCNC(=O)C[n+]4ccc(/C(C#N)=C5/C=C(C)c6ccccc6O5)cc4)ccc31)[Ir-3]13([c]4ccccc4-c4[nH]c5ccccc5[n+]41)([c]1ccccc1-c1[nH]c4ccccc4[n+]13)[n+]1c-2ccc2ccccc21 [3b]
superoxide anion radical generation (DHR123 fluorescence) [1]: highest maximum emission intensity of superoxide generation
tumor growth of A2780cis spheres after PDT treatment [2]: did not show significant tumor inhibition effects

SMILES: CCN(CC)c1ccc2c(c1)O/C(=C(/C#N)c1cc[n+](C)cc1)C=C2C [1a]
singlet oxygen quantum yield at 355 nm, ACN ([4]; ACN): < 0.01
singlet oxygen quantum yield at 532 nm, ACN ([4]; ACN, excitation 532 nm): < 0.01
singlet oxygen quantum yield at 355 nm, DCM ([4]; DCM): < 0.01
singlet oxygen quantum yield at 532 nm, DCM ([4]; DCM, excitation 532 nm): 0.03
singlet oxygen quantum yield at 355 nm, PBS ([4]; PBS): 0
singlet oxygen quantum yield at 532 nm, PBS ([4]; PBS, excitation 532 nm): < 0.01
fold differences in bioactivity upon irradiation ([5]; melanoma cells, 520 nm): more than 86 fold

singlet oxygen quantum yield at 355 nm, ACN ([3]; room temperature): 0
singlet oxygen quantum yield at 532 nm, ACN [3, 7]: 0.01
singlet oxygen quantum yield at 355 nm, DCM ([3]; DCM, room temperature): 0.03
singlet oxygen quantum yield at 532 nm, DCM ([3]; DCM, excitation 532 nm, room temperature): 0.03
singlet oxygen quantum yield at 355 nm, PBS ([3]; room temperature): 0
singlet oxygen quantum yield at 532 nm, PBS [3, 7]: < 0.01
SMILES: CC1=C/C(=C(\C#N)c2cc[n+](C)cc2)Oc2c1cc1c3c2CCCN3CCC1 [1c]
IC50 [5]: 5 to 26 µM

singlet oxygen quantum yield at 355 nm, ACN ([3]; room temperature): 0.01
singlet oxygen quantum yield at 532 nm, ACN [3, 7]: < 0.01
singlet oxygen quantum yield at 355 nm, DCM ([3]; DCM, room temperature): 0.01
singlet oxygen quantum yield at 355 nm, PBS ([3]; room temperature): 0
singlet oxygen quantum yield at 532 nm, PBS [3, 7]: < 0.01
SMILES: CC1=C/C(=C(\C#N)c2cc[n+](C)cc2)Oc2ccccc21 [1b]
antiproliferative activity after light irradiation ([5]; 520 nm, investigated cancer cells): did not display antiproliferative activity after light irradiation

SMILES: CCCCn1c2[n+](c3cc(C(=O)NCCCNC(=O)C[n+]4ccc(/C(C#N)=C5/C=C(C)c6cc7c8c(c6O5)CCCN8CCC7)cc4)ccc31)[Ir-3]13([c]4ccccc4-c4[nH]c5ccccc5[n+]41)([c]1ccccc1-c1[nH]c4ccccc4[n+]13)[n+]1c-2ccc2ccccc21 [3c]
superoxide anion radical generation (DHR123 fluorescence) [1]: fastest rates in superoxide generation
tumor growth of A2780cis spheres after PDT treatment [2]: did not show significant tumor inhibition effects
IC50 [5]: > 100 µM
Intracellular Ir levels [6]: 461 ± 74 ng/10^6 cells
singlet oxygen quantum yields in DCM ([3]; DCM): ca. 0.20

SMILES: CCCCn1c2[n+](c3cc(C(=O)NCCCCCC(=O)NCCCNC(=O)C[n+]4ccc(/C(C#N)=C5/C=C(C)c6ccc(N(CC)CC)cc6O5)cc4)ccc31)[Ir-3]13([c]4ccccc4-c4[nH]c5ccccc5[n+]41)([c]1ccccc1-c1[nH]c4ccccc4[n+]13)[n+]1c-2ccc2ccccc21 [3d]
tumor growth of A2780cis spheres after PDT treatment [2]: effectively blocked tumoral growth

SMILES: CCCCn1c2[n+](c3cc(C(=O)NCCCNC(=O)C[n+]4ccc(/C(C#N)=C5/C=C(C)c6ccc(N(CC)CC)cc6O5)cc4)ccc31)[Ir-3]13([c]4ccccc4-c4[nH]c5ccccc5[n+]41)([c]1ccccc1-c1[nH]c4ccccc4[n+]13)[n+]1c-2ccc2ccccc21 [3a]
spheroid shrinkage compared to irradiated controls [2]: statistically significant shrank
tumor growth of A2780cis spheres after PDT treatment [2]: effectively blocked tumoral growth

SMILES: CCCCn1c2[n+](c3cc(C(=O)NC[C@H]4CC[C@H](C(=O)NCCCNC(=O)C[n+]5ccc(/C(C#N)=C6/C=C(C)c7ccc(N(CC)CC)cc7O6)cc5)CC4)ccc31)[Ir-3]13([c]4ccccc4-c4[nH]c5ccccc5[n+]41)([c]1ccccc1-c1[nH]c4ccccc4[n+]13)[n+]1c-2ccc2ccccc21 [3e]
spheroid shrinkage compared to irradiated controls [2]: statistically significant shrank
tumor growth of A2780cis spheres after PDT treatment [2]: effectively blocked tumoral growth

Intracellular Ir levels [6]: 276 ± 12 ng/10^6 cells
SMILES: CCCCn1c2[n+](c3cc(C(=O)OC)ccc31)[Ir-3]13([c]4ccccc4-c4[nH]c5ccccc5[n+]41)([c]1ccccc1-c1[nH]c4ccccc4[n+]13)[n+]1c-2ccc2ccccc21 [2a]
singlet oxygen quantum yield at 355 nm, ACN ([4]; ACN): 0.42
singlet oxygen quantum yield at 355 nm, DCM ([4]; DCM): 0.23
singlet oxygen quantum yield at 355 nm, PBS ([4]; PBS): < 0.01

Source: article PMC10291553, “Exploring Structure–Activity Relationships in Photodynamic Therapy Anticancer Agents Based on Ir(III)-COUPY Conjugates” (Journal of Medicinal Chemistry, 2023)
